The test system of one data set is Msm. The format is cell-based, Mycobacterium smegmatis. Particulars: against Msm; for MIC value: 48 h, three biological replicates. How it is done: Minimum inhibitory concentration (MIC) assay. Msm cells were inoculated from the glycerol stock to the according media and grown for 24 hours until 0.5- 0.6 OD. Testing peptides were dissolved in the 7H9 growth media mentioned above and made into serial dilutions from 128 µM. 200 µL of each concentration was added to a deep well 96-well plate – with each concentration added in triplicates. The cells were diluted […] to OD of around 0.05 with fresh 7H9 growth media. […] of diluted cells were added to the deep well plate each well and mixed well with the peptide solution. The plate was covered by an adhesive porous film and incubated at 37 °C with shaking at 250 rpm for 48 h. The contents from each well were then transferred to a flat-bottom 96-well plate for MIC value determination. MIC values were determined both visually and readings of OD (wells OD < 0.1) from a Biotek Synergy H1 microplate reader at 600 nm.

Data set [1] is described as follows: Serum stability assay in mouse serum. Format: in vitro ADME. The procedure:
Serum stability assay. Time course degradation in mouse serum was evaluated for peptides Lin0, Cyc0, Nmet0 and Nmet9. Compounds were incubated in mouse serum at a concentration of 1.0 mM to a total of 200 μL at 37 °C. At each time point (0, 15, 30, 60 min), 4 0 μL of the solution was aliquoted and diluted in a 1:1 solution o f H2O/CH3CN (101 μL) containing trichloroacetic acid (9 μL) and 100 μM of internal standard Fm o c -L-phenylalanine. This mixture was incubated in ice for 5 min to precipitate serum proteins.
The samples were then centrifuged at 21,000×g for 5 min. 140 μL of the supernatant was then transferred to a filter tube and centrifuged again at 21,000× g for 5 min to filter. 110 μL of the filtrate was then analyzed using Phenomenex Luna 5 µm C8(2) on RP-HPLC; gradient elution in H2O/CH 3CN with 0.1% TFA at 1 mL/min. Peptide identity was confirmed via peak collection and subsequent matrix-assisted laser desorption ionization time-of-flight (MALDI-TOF) mass spectroscopy (Shimadzu 8020). To eliminate variations in the overall signal intensity, area under the curve (AUC) for the peptides of interest at each time point was normalized to the AUC of the internal standard Fm o c -L-phenylalanine, the concentration of which was predetermined. These normalized AUC values were then further normalized to the “0 min” time point which was set to 100%. […]

For a further data set, the system named is Msm cells. Particulars: 25 μM TetD labeling; microscopy and EtBr accumulation/efflux.

Bridge positions count the residues as written; N and C are the ends. Square brackets hold non-standard residues; d marks the D form. Peptide text beside a SMILES is read from it. * marks the point of attachment. Lys(N3) = [N-]=[N+]=NCCCC[C@H](N)C(=O)O; Azidoacetyl = [N-]=[N+]=NCC(=O)*; NMeF = CN[C@@H](Cc1ccccc1)C(=O)O; NMeT = CN[C@H](C(=O)O)[C@@H](C)O; NMeL = CN[C@@H](CC(C)C)C(=O)O; dNMeL = CN[C@H](CC(C)C)C(=O)O; NMeK = CN[C@@H](CCCCN)C(=O)O; NMeV = CN[C@H](C(=O)O)C(C)C

Experimental for Msm cells: Ethidium bromide (EtBr) whole-cell accumulation assay. To a 96-well plate, 90 µL of
T etD -modified Msm cells were added in triplicate. Next, 5 µL of 1 mM peptide stock
solutions were added to yield a final concentration of 50 µM. The volume in each well was
made up to 100 µL using PBS. To the blank and PBS control wells, 10 µL of PBS was
added at this point. For the blank wells, 90 µL of unlabeled cells were added in triplicate.
The plates were then incubated at 37 °C for the same duration as the corresponding PAC -
MAN assay incubation duration for that library. The cells were centrifuged for 2 min at
3000× g, and the supernatant was discarded. The pellets were then washed with 100 µL
PBST twice and finally resuspended in 100 µL of PBST. 95 µL of these cells were then
transferred to corresponding wells in a 96 -well, black, flat-bottomed plate. To each well,
5 µL of 100 µM EtBr (5 µM final) was added. The fluorescent intensities were measured
by a Biotek Synergy H1 microplate reader 60 m post -treatment with EtBr, with continuous
orbital shaking. Wavelengths: ethidium bromide, excitation 530 nm/emission 590 nm.

As to `CC(C)C[C@H](NC(=O)[C@@H]1CCCN1C(=O)[C@H](CC(C)C)NC(=O)[C@H]([C@@H](C)O)N(C)C(=O)[C@@H]1CCCN1C(=O)[C@H](C(C)C)N(C)C(=O)CN=[N+]=[N-])C(=O)N(C)[C@H](C(=O)N1CCC[C@H]1C(=O)N(C)[C@H](CC(C)C)C(=O)NCC(N)=O)C(C)C` [grisMeLin] (Azidoacetyl-[NMeV]P[NMeT]LPL[NMeV]P[dNMeL]G-NH2), the MIC value in the data set on Msm is greater than 64 µM. Further, in the data set with Msm (loss of macrocyclization), the “fold increase in MIC value relative to grisMeCyc” value is on record as greater than 32 fold. For the molecule `CC(C)C[C@@H](C(=O)N(C)[C@@H](CCCCN)C(=O)N(C)[C@@H](CC(C)C)C(=O)N(C)[C@@H](Cc1ccccc1)C(N)=O)N(C)C(=O)[C@H](CCCCN)N(C)C(=O)CN=[N+]=[N-]` [Nmet5] (Azidoacetyl-[NMeK][NMeL][NMeK][NMeL][NMeF]-NH2), in data set [1] (mouse serum, 37 °C, over 1 h), the “serum stability (in words)” value is listed as “considerably greater serum stability than peptide Nmet0”. As for `CC(=O)N[C@@H](CCCCN=[N+]=[N-])C(=O)N[C@@H](CC(C)C)C(=O)N[C@@H](CO)C(=O)N[C@@H](CCCCN)C(=O)N[C@@H](CO)C(=O)N[C@@H](Cc1ccccc1)C(N)=O` [Lin0] (Ac-[Lys(N3)]LSKSF-NH2), in data set [1], the “time to full degradation in serum” value is listed as no more than 1 h. On to `CC(C)C[C@@H]1NC(=O)[C@@H]2CCCN2C(=O)[C@H](CC(C)C)NC(=O)[C@@H](N(C)C(=O)[C@@H]2CCCN2C(=O)[C@H](C(C)C)N(C)C(=O)CN=[N+]=[N-])[C@@H](C)OC(=O)CNC(=O)[C@@H](CC(C)C)N(C)C(=O)[C@@H]2CCCN2C(=O)[C@H](C(C)C)N(C)C1=O` [grisMeCyc] (Azidoacetyl-[NMeV]P[NMeT]LPL[NMeV]P[dNMeL]G; ester 3-C), for which the MIC value in the data set on Msm is 2 µM. The same measure, in the same setting: under `CC(C)C[C@H](NC(=O)[C@@H]1CCCN1C(=O)[C@H](CC(C)C)NC(=O)[C@@H](NC(=O)[C@@H]1CCCN1C(=O)[C@@H](NC(=O)CN=[N+]=[N-])C(C)C)[C@@H](C)O)C(=O)N[C@H](C(=O)N1CCC[C@H]1C(=O)N[C@H](CC(C)C)C(=O)NCC(N)=O)C(C)C` [grisLin] (Azidoacetyl-VPTLPLVP[dL]G-NH2) stands greater than 64 µM. Turning to `C[C@H](NC(=O)CCC(=O)N1Cc2ccccc2C#Cc2ccccc21)C(=O)N[C@H](CCC(=O)N[C@@H](CCCCN)C(=O)N[C@H](C)C(=O)O)C(N)=O` [TetD], the “cell morphology and cell envelope integrity after labeling” value in the data set on Msm cells was “no significant changes in cell morphology or cell envelope integrity”. For the molecule `CC(C)C[C@@H]1NC(=O)[C@@H]2CCCN2C(=O)[C@H](CC(C)C)NC(=O)[C@@H](NC(=O)[C@@H]2CCCN2C(=O)[C@@H](NC(=O)CN=[N+]=[N-])C(C)C)[C@@H](C)OC(=O)CNC(=O)[C@@H](CC(C)C)NC(=O)[C@@H]2CCCN2C(=O)[C@H](C(C)C)NC1=O` [grisCyc] (Azidoacetyl-VPTLPLVP[dL]G; ester 3-C), the MIC value with Msm is greater than 64 µM.
